# Read-outs that look alike come from different tables or passages of the source.
# Biological target: T1, Human TRPC6 (Homo sapiens, UniProt Q9Y210)
# T1 construct: expressed in transfected cells
# T1 sequence (Q9Y210 1-931): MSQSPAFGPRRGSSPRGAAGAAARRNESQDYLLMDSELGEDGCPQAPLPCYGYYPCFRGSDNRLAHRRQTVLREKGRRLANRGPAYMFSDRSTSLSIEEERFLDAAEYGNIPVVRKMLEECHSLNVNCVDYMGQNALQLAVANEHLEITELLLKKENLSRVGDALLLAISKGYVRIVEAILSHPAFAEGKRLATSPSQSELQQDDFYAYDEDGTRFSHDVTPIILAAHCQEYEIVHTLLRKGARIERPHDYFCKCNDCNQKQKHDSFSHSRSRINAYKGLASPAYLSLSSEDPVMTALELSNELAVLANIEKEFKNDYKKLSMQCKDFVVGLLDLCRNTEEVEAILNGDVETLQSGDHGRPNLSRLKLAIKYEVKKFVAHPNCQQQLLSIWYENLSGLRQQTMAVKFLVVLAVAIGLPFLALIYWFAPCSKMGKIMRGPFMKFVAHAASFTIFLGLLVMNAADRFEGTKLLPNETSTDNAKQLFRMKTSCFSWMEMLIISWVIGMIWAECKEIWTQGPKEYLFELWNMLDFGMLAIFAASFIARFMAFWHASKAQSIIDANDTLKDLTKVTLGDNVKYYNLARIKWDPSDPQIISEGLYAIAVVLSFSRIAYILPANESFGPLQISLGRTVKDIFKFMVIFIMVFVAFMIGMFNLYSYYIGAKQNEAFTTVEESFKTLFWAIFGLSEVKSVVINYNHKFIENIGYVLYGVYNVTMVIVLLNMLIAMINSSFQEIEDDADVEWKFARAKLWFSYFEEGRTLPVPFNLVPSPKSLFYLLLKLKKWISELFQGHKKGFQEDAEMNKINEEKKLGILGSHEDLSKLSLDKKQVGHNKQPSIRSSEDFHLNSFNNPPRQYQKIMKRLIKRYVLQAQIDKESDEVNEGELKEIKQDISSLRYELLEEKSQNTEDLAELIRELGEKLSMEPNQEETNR
# Assay: Evaluation of TRPC6 channel inhibitory activity (1), FLIPR Calcium 5 Assay Kit, OAG stimulation (Compound Nos. 1-1293)
# Type: cell-based
# Summary of the method: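 Calcium influx read by FLIPR fluorescence in cells stably expressing human TRPC6, dye-loaded 30 min. Compounds preincubated 20 min, then OAG stimulation at 30 μM final. Inhibition fitted by four-parameter logistic regression to give pIC50, reported as +/++/+++ categories.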
# [1] = Human TRPC6 stably-expressing cells, OAG 30 μM, FLIPR Calcium 5 Assay Kit, read-out: Inhibitory activity (pIC50 class) (converted)
Compound,IC50 [1] [nM],IC50 [nM]
"CCOC(CN)c1ccc(-c2ccc(C#N)cc2Oc2cc(N3CCOCC3)nc(C)n2)cc1 (stereo not shown) [Compound 100, 4-[4-(2-amino-1-ethoxyethyl)phenyl]-3-(2-methyl-6-morpholin-4-ylpyrimidin-4-yl)oxybenzonitrile]",< 10,–
"NCc1cnc(-c2ccc(F)cc2C(=O)c2cnn(C3CCC3)c2)nc1 [compound 1109, [2-[5-(aminomethyl)pyrimidin-2-yl]-5-fluorophenyl]-(1-cyclobutylpyrazol-4-yl)methanone]",10 to 1000,–
"Cn1nc(N2CCCC2=O)cc1Oc1cc(C#N)ccc1-c1ccc(CCN)cn1 [compound 755, 4-[5-(2-aminoethyl)pyridin-2-yl]-3-[2-methyl-5-(2-oxopyrrolidin-1-yl)pyrazol-3-yl]oxybenzonitrile]",10 to 1000,–
"Cc1cc(Oc2cc(C#N)ccc2-c2ncc([C@H](O)CN)cn2)cc(-c2ncc(C)s2)n1 [compound 601, 4-[5-[(1S)-2-amino-1-hydroxyethyl]pyrimidin-2-yl]-3-[2-methyl-6-(5-methyl-1,3-thiazol-2-yl)pyridin-4-yl]oxybenzonitrile]",10 to 1000,–
"Cc1nc(Oc2cc(C#N)ccc2-c2ncc(CN)cn2)cc(N(C)C)n1 [compound 660, 4-[5-(aminomethyl)pyrimidin-2-yl]-3-[6-(dimethylamino)-2-methylpyrimidin-4-yl]oxybenzonitrile]",> 1000,–
"Cn1nc(C2CCOCC2)cc1Oc1cc(C#N)ccc1-c1ncc(CCN)cn1 [Compound 273, 4-[5-(2-aminoethyl)pyrimidin-2-yl]-3-[2-methyl-5-(oxan-4-yl)pyrazol-3-yl]oxybenzonitrile]",< 10,–
"Cc1cc(Oc2cc(C#N)ccc2-c2ccc(C3OCCCC3N)cn2)cc(N2CCOCC2)n1 (stereo not shown) [compound 539, 4-[5-(3-aminooxan-2-yl)pyridin-2-yl]-3-(2-methyl-6-morpholin-4-ylpyridin-4-yl)oxybenzonitrile]",10 to 1000,–
"Cn1nc(-c2cncc(F)c2)cc1Oc1cc(C#N)ccc1-c1ncc(CN)cn1 [compound 928, 4-[5-(aminomethyl)pyrimidin-2-yl]-3-[5-(5-fluoropyridin-3-yl)-2-methylpyrazol-3-yl]oxybenzonitrile]",10 to 1000,–
"Cn1nc(C2CC2)cc1Oc1cc(C#N)ccc1-c1cccn2c(CN)nnc12 [compound 515, 4-[3-(aminomethyl)-[1,2,4]triazolo[4,3-a]pyridin-8-yl]-3-(5-cyclopropyl-2-methylpyrazol-3-yl)oxybenzonitrile]",10 to 1000,–
"Cc1nc(Oc2cc(C#N)ccc2-c2ncc(CN)cn2)cc(N2CCC2)n1 [compound 789, 4-[5-(aminomethyl)pyrimidin-2-yl]-3-[6-(azetidin-1-yl)-2-methylpyrimidin-4-yl]oxybenzonitrile]",10 to 1000,–
"Cc1nc(Oc2cc(C#N)ccc2-c2ccc(C(CN)C(F)F)cc2)cc(N2CCOCC2)n1 (stereo not shown) [Compound 133, 4-[4-(3-amino-1,1-difluoropropan-2-yl)phenyl]-3-(2-methyl-6-morpholin-4-ylpyrimidin-4-yl)oxybenzonitrile]",< 10,–
"CC(C)c1cc(Oc2cc(F)ccc2-c2ccc(CN)cn2)n(C)n1 [compound 1011, [6-[4-fluoro-2-(2-methyl-5-propan-2-ylpyrazol-3-yl)oxyphenyl]pyridin-3-yl]methanamine]",< 10,–
"CCN(CC)c1cc(Cc2cc(C#N)ccc2-c2ncc(CN)cn2)n(C)n1 [compound 1206, 4-[5-(aminomethyl)pyrimidin-2-yl]-3-[[5-(diethylamino)-2-methylpyrazol-3-yl]methyl]benzonitrile]",< 10,–
"Cc1cc(Oc2cc(F)ccc2-c2ncc(CCN)cn2)cc(N2CCOCC2)n1 [compound 978, 2-[2-[4-fluoro-2-(2-methyl-6-morpholin-4-ylpyridin-4-yl)oxyphenyl]pyrimidin-5-yl]ethanamine]",< 10,–
"Cn1nc(N2C3CCC2COC3)cc1Oc1cc(C#N)ccc1-c1ncc(CN)cn1 [compound 944, 4-[5-(aminomethyl)pyrimidin-2-yl]-3-[2-methyl-5-(3-oxa-8-azabicyclo[3.2.1]octan-8-yl)pyrazol-3-yl]oxybenzonitrile]",–,10 to 1000
"Cn1nc(C2CC2)cc1Oc1cc(C#N)ccc1-c1ccc(C(O)C(C)(C)N)cn1 (stereo not shown) [compound 335, 4-[5-(2-amino-1-hydroxy-2-methylpropyl)pyridin-2-yl]-3-(5-cyclopropyl-2-methylpyrazol-3-yl)oxybenzonitrile]",< 10,–
"N#Cc1ccc(-c2ccc(CCN)cn2)c(Oc2cc(N3CCOCC3)nc(C(F)(F)F)n2)c1 [Compound 148, 4-[5-(2-aminoethyl)pyridin-2-yl]-3-[6-morpholin-4-yl-2-(trifluoromethyl)pyrimidin-4-yl]oxybenzonitrile]",10 to 1000,–
"Cn1nc(C2CC2)cc1Oc1cc(C#N)ccc1-c1cc(C(=O)NCCN)ccn1 [compound 551, N-(2-aminoethyl)-2-[4-cyano-2-(5-cyclopropyl-2-methylpyrazol-3-yl)oxyphenyl]pyridine-4-carboxamide]",10 to 1000,–
"Cn1nc(C2CC2)cc1Oc1cc(C#N)ccc1-c1cc(C(=O)N2CCC(N)CC2)ccn1 [compound 553, 4-[4-(4-aminopiperidine-1-carbonyl)pyridin-2-yl]-3-(5-cyclopropyl-2-methylpyrazol-3-yl)oxybenzonitrile]",> 1000,–
"COCCCNCCc1ccc(-c2ccc(C#N)cc2Oc2cc(N3CCOCC3)nc(C)n2)cc1 [Compound 57, 4-[4-[2-(3-methoxypropylamino)ethyl]phenyl]-3-(2-methyl-6-morpholin-4-ylpyrimidin-4-yl)oxybenzonitrile]",> 1000,–
"CCCCc1cc(Oc2cc(C#N)ccc2-c2ccc(C(O)C(C)(C)N)cn2)n(C)n1 (stereo not shown) [compound 336, 4-[5-(2-amino-1-hydroxy-2-methylpropyl)pyridin-2-yl]-3-(5-butyl-2-methylpyrazol-3-yl)oxybenzonitrile]",< 10,–
"CCN(CC(F)F)c1cc(Oc2cc(C#N)ccc2-c2ncc(CN)cn2)n(C)n1 [compound 874, 4-[5-(aminomethyl)pyrimidin-2-yl]-3-[5-[2,2-difluoroethyl(ethyl)amino]-2-methylpyrazol-3-yl]oxybenzonitrile]",< 10,–

# Second part, led by results:
IC50 [1] [nM],Compound,IC50 [nM]
< 10,"Cc1nn(-c2ccccn2)cc1Oc1cc(F)ccc1-c1ncc(CCN)cn1 [compound 969, 2-[2-[4-fluoro-2-(3-methyl-1-pyridin-2-ylpyrazol-4-yl)oxyphenyl]pyrimidin-5-yl]ethanamine]",–
10 to 1000,"Cc1c(Oc2cc(C#N)ccc2-c2ncc(CN)cn2)cnn1CC(F)(F)F [compound 837, 4-[5-(aminomethyl)pyrimidin-2-yl]-3-[5-methyl-1-(2,2,2-trifluoroethyl)pyrazol-4-yl]oxybenzonitrile]",–
< 10,"Cn1nc(-c2cncs2)cc1Oc1cc(C#N)ccc1-c1ncc(CN)cn1 [compound 935, 4-[5-(aminomethyl)pyrimidin-2-yl]-3-[2-methyl-5-(1,3-thiazol-5-yl)pyrazol-3-yl]oxybenzonitrile]",–
> 1000,"CC(C)NC(=O)c1cn(Cc2cc(C#N)ccc2-c2ccc(CCN)cc2)cn1 [compound 1113, 1-[[2-[4-(2-aminoethyl)phenyl]-5-cyanophenyl]methyl]-N-propan-2-ylimidazole-4-carboxamide]",–
< 10,"Cn1nc(C(F)(F)F)cc1Oc1cc(C#N)ccc1-c1ccc(CN)cn1 [compound 810, 4-[5-(aminomethyl)pyridin-2-yl]-3-[2-methyl-5-(trifluoromethyl)pyrazol-3-yl]oxybenzonitrile]",–
> 1000,"N#Cc1ccc(-c2ccc(C(O)CN)cn2)c(Cn2cncc2-c2ccccc2)c1 (stereo not shown) [compound 1133, 4-[5-(2-amino-1-hydroxyethyl)pyridin-2-yl]-3-[(5-phenylimidazol-1-yl)methyl]benzonitrile]",–
10 to 1000,"Cn1nc(C2CC2)cc1Oc1cc(C#N)ccc1-c1ccc(CCNCC#N)cn1 [Compound 286, 4-[5-[2-(cyanomethylamino)ethyl]pyridin-2-yl]-3-(5-cyclopropyl-2-methylpyrazol-3-yl)oxybenzonitrile]",–
> 1000,"N#Cc1ccc(-c2ncc(CCN)cn2)c(Cn2ncc(-c3ccccc3)n2)c1 [compound 1169, 4-[5-(2-aminoethyl)pyrimidin-2-yl]-3-[(4-phenyltriazol-2-yl)methyl]benzonitrile]",–
> 1000,"Cn1nc(N)cc1Oc1cc(C#N)ccc1-c1ccc([C@H](O)CN)cn1 [compound 576, 4-[5-[(1S)-2-amino-1-hydroxyethyl]pyridin-2-yl]-3-(5-amino-2-methylpyrazol-3-yl)oxybenzonitrile]",–
